Experimental data published in ChEMBL document CHEMBL3526147, “Tissue distribution and characterization of drug-related material in rats and dogs after repeated oral administration of casopitant” (Drug Metab Dispos, 2011).

Key:
Parameters in all cases: dosed compound name [14C]Casopitant, route oral
Conditions in all cases: in vivo
[1] = Drug level in Sprague-Dawley rat myocardium assessed as free base level at 60 mg/kg/day, po administered as repeat dose measured after 24 hrs on day 20; type: ADME, organism-based
Lung [2] = experiment: Drug level in Sprague-Dawley rat lung assessed as free base level at 60 mg/kg/day, po administered as repeat dose measured after 24 hrs on day 40; type: ADME, organism-based
Blood [3] = experiment: Drug level in Sprague-Dawley rat blood assessed as free base level at 60 mg/kg/day, po administered as repeat dose measured after 24 hrs on day 40; type: ADME, organism-based
Liver [4] = experiment: Drug level in beagle dog liver assessed as free base level at 40 mg/kg/day, po administered as repeat dose measured after 24 hrs on day 34; type: ADME, organism-based, Canis lupus familiaris
Plasma [5] = experiment: Drug level in Sprague-Dawley rat plasma assessed as free base level at 60 mg/kg/day, po administered as repeat dose measured after 24 hrs on day 40; type: ADME, organism-based
[6] = Drug level in beagle dog skeletal muscle assessed as free base level at 40 mg/kg/day, po administered as repeat dose measured after 24 hrs on day 14; type: ADME, organism-based, Canis lupus familiaris, Muscle tissue
Plasma [7] = experiment: Drug level in Sprague-Dawley rat plasma assessed as free base level at 60 mg/kg/day, po administered as single dose measured after 2 hrs on day 1; type: ADME, organism-based
[8] = Drug level in beagle dog blood assessed as free base level at 40 mg/kg/day, po administered as repeat dose measured after 2 hrs on day 14; type: ADME, organism-based, Canis lupus familiaris
[9] = Drug level in Sprague-Dawley rat skeletal muscle assessed as free base level at 60 mg/kg/day, po administered as single dose measured after 24 hrs on day 1; type: ADME, organism-based, Muscle tissue
Plasma [10] = experiment: Drug level in beagle dog plasma assessed as free base level at 40 mg/kg/day, po administered as repeat dose measured after 2 hrs on day 14; type: ADME, organism-based, Canis lupus familiaris
[11] = Drug level in Sprague-Dawley rat skeletal muscle assessed as free base level at 60 mg/kg/day, po administered as repeat dose measured after 24 hrs on day 40; type: ADME, organism-based, Muscle tissue
Plasma [12] = experiment: Drug level in beagle dog plasma assessed as free base level at 40 mg/kg/day, po administered as repeat dose measured after 24 hrs on day 14; type: ADME, organism-based, Canis lupus familiaris
[13] = Drug level in beagle dog myocardium assessed as free base level at 40 mg/kg/day, po administered as repeat dose measured after 24 hrs on day 34; type: ADME, organism-based, Canis lupus familiaris
Plasma [14] = experiment: Drug level in Sprague-Dawley rat plasma assessed as free base level at 60 mg/kg/day, po administered as single dose measured after 24 hrs on day 1; type: ADME, organism-based
Blood [15] = experiment: Drug level in Sprague-Dawley rat blood assessed as free base level at 60 mg/kg/day, po administered as repeat dose measured after 24 hrs on day 20; type: ADME, organism-based
Plasma [16] = experiment: Drug level in beagle dog plasma assessed as free base level at 40 mg/kg/day, po administered as single dose measured after 24 hrs on day 1; type: ADME, organism-based, Canis lupus familiaris
[17] = Drug level in Sprague-Dawley rat myocardium assessed as free base level at 60 mg/kg/day, po administered as repeat dose measured after 24 hrs on day 27; type: ADME, organism-based
[18] = Drug level in beagle dog lung assessed as free base level at 40 mg/kg/day, po administered as repeat dose measured after 24 hrs on day 34; type: ADME, organism-based, Canis lupus familiaris
Plasma [19] = experiment: Drug level in Sprague-Dawley rat plasma assessed as free base level at 60 mg/kg/day, po administered as repeat dose measured after 24 hrs on day 27; type: ADME, organism-based
Blood [20] = experiment: Drug level in Sprague-Dawley rat blood assessed as free base level at 60 mg/kg/day, po administered as single dose measured after 24 hrs on day 1; type: ADME, organism-based
[21] = Drug level in Sprague-Dawley rat myocardium assessed as free base level at 60 mg/kg/day, po administered as single dose measured after 24 hrs on day 1; type: ADME, organism-based
Blood [22] = experiment: Drug level in Sprague-Dawley rat blood assessed as free base level at 60 mg/kg/day, po administered as repeat dose measured after 24 hrs on day 27; type: ADME, organism-based
Plasma [23] = experiment: Drug level in Sprague-Dawley rat plasma assessed as free base level at 60 mg/kg/day, po administered as single dose measured after 2 hrs on day 20; type: ADME, organism-based
[24] = Drug level in beagle dog skeletal muscle assessed as free base level at 40 mg/kg/day, po administered as repeat dose measured after 24 hrs on day 34; type: ADME, organism-based, Canis lupus familiaris, Muscle tissue
[25] = Drug level in beagle dog blood assessed as free base level at 40 mg/kg/day, po administered as repeat dose measured after 24 hrs on day 14; type: ADME, organism-based, Canis lupus familiaris
Lung [26] = experiment: Drug level in Sprague-Dawley rat lung assessed as free base level at 60 mg/kg/day, po administered as repeat dose measured after 24 hrs on day 20; type: ADME, organism-based
[27] = Drug level in Sprague-Dawley rat myocardium assessed as free base level at 60 mg/kg/day, po administered as repeat dose measured after 24 hrs on day 40; type: ADME, organism-based
Lung [28] = experiment: Drug level in Sprague-Dawley rat lung assessed as free base level at 60 mg/kg/day, po administered as repeat dose measured after 24 hrs on day 27; type: ADME, organism-based
[29] = Drug level in beagle dog blood assessed as free base level at 40 mg/kg/day, po administered as repeat dose measured after 24 hrs on day 34; type: ADME, organism-based, Canis lupus familiaris
Plasma [30] = experiment: Drug level in beagle dog plasma assessed as free base level at 40 mg/kg/day, po administered as repeat dose measured after 24 hrs on day 34; type: ADME, organism-based, Canis lupus familiaris
Kidney [31] = experiment: Drug level in Sprague-Dawley rat kidney assessed as free base level at 60 mg/kg/day, po administered as repeat dose measured after 24 hrs on day 27; type: ADME, organism-based
Lung [32] = experiment: Drug level in Sprague-Dawley rat lung assessed as free base level at 60 mg/kg/day, po administered as single dose measured after 24 hrs on day 1; type: ADME, organism-based
Kidney [33] = experiment: Drug level in Sprague-Dawley rat kidney assessed as free base level at 60 mg/kg/day, po administered as repeat dose measured after 24 hrs on day 20; type: ADME, organism-based
[34] = Drug level in beagle dog blood assessed as free base level at 40 mg/kg/day, po administered as single dose measured after 24 hrs on day 1; type: ADME, organism-based, Canis lupus familiaris
Liver [35] = experiment: Drug level in beagle dog liver assessed as free base level at 40 mg/kg/day, po administered as repeat dose measured after 24 hrs on day 14; type: ADME, organism-based, Canis lupus familiaris
[36] = Drug level in beagle dog kidney assessed as free base level at 40 mg/kg/day, po administered as repeat dose measured after 24 hrs on day 34; type: ADME, organism-based, Canis lupus familiaris
Liver [37] = experiment: Drug level in Sprague-Dawley rat liver assessed as free base level at 60 mg/kg/day, po administered as repeat dose measured after 24 hrs on day 27; type: ADME, organism-based
Kidney [38] = experiment: Drug level in Sprague-Dawley rat kidney assessed as free base level at 60 mg/kg/day, po administered as single dose measured after 24 hrs on day 1; type: ADME, organism-based
Plasma [39] = experiment: Drug level in beagle dog plasma assessed as free base level at 40 mg/kg/day, po administered as single dose measured after 2 hrs on day 1; type: ADME, organism-based, Canis lupus familiaris
Plasma [40] = experiment: Drug level in Sprague-Dawley rat plasma assessed as free base level at 60 mg/kg/day, po administered as repeat dose measured after 24 hrs on day 20; type: ADME, organism-based
[41] = Drug level in beagle dog kidney assessed as free base level at 40 mg/kg/day, po administered as repeat dose measured after 24 hrs on day 14; type: ADME, organism-based, Canis lupus familiaris
[42] = Drug level in beagle dog lung assessed as free base level at 40 mg/kg/day, po administered as repeat dose measured after 24 hrs on day 14; type: ADME, organism-based, Canis lupus familiaris
[43] = Drug level in Sprague-Dawley rat skeletal muscle assessed as free base level at 60 mg/kg/day, po administered as repeat dose measured after 24 hrs on day 20; type: ADME, organism-based, Muscle tissue
[44] = Drug level in beagle dog blood assessed as free base level at 40 mg/kg/day, po administered as single dose measured after 2 hrs on day 1; type: ADME, organism-based, Canis lupus familiaris
[45] = Drug level in Sprague-Dawley rat skeletal muscle assessed as free base level at 60 mg/kg/day, po administered as repeat dose measured after 24 hrs on day 27; type: ADME, organism-based, Muscle tissue
Liver [46] = experiment: Drug level in Sprague-Dawley rat liver assessed as free base level at 60 mg/kg/day, po administered as single dose measured after 24 hrs on day 1; type: ADME, organism-based
Liver [47] = experiment: Drug level in Sprague-Dawley rat liver assessed as free base level at 60 mg/kg/day, po administered as repeat dose measured after 24 hrs on day 40; type: ADME, organism-based
Kidney [48] = experiment: Drug level in Sprague-Dawley rat kidney assessed as free base level at 60 mg/kg/day, po administered as repeat dose measured after 24 hrs on day 40; type: ADME, organism-based
[49] = Drug level in beagle dog myocardium assessed as free base level at 40 mg/kg/day, po administered as repeat dose measured after 24 hrs on day 14; type: ADME, organism-based, Canis lupus familiaris
Liver [50] = experiment: Drug level in Sprague-Dawley rat liver assessed as free base level at 60 mg/kg/day, po administered as repeat dose measured after 24 hrs on day 20; type: ADME, organism-based

CC(=O)N1CCN([C@H]2CCN([14C](=O)N(C)[C@H](C)c3cc(C(F)(F)F)cc(C(F)(F)F)c3)[C@@H](c3ccc(F)cc3C)C2)CC1.CS(=O)(=O)O
Radiolabel recovery [1]: 79.6 ugequiv/g | Radiolabel recovery (Lung [2]): 96.8 ugequiv/g | Radiolabel recovery (Blood [3]): 3.63 ugequiv/g | Radiolabel recovery (Liver [4]): 612 ugequiv/g | Radiolabel recovery (Plasma [5]): 0.246 ugequiv/g | Radiolabel recovery [6]: 99.2 ugequiv/g | Radiolabel recovery (Plasma [7]): 6.06 ugequiv/g | Radiolabel recovery [8]: 47.4 ugequiv/g | Radiolabel recovery [9]: 18.3 ugequiv/g | Radiolabel recovery (Plasma [10]): 69.5 ugequiv/g | Radiolabel recovery [11]: 7.74 ugequiv/g | Radiolabel recovery (Plasma [12]): 49.2 ugequiv/g | Radiolabel recovery [13]: 96.2 ugequiv/g | Radiolabel recovery (Plasma [14]): 5.54 ugequiv/g | Radiolabel recovery (Blood [15]): 14.5 ugequiv/g | Radiolabel recovery (Plasma [16]): 9.68 ugequiv/g | Radiolabel recovery [17]: 32.9 ugequiv/g | Radiolabel recovery [18]: 345 ugequiv/g | Radiolabel recovery (Plasma [19]): 1.92 ugequiv/g | Radiolabel recovery (Blood [20]): 5.6 ugequiv/g | Radiolabel recovery [21]: 34.6 ugequiv/g | Radiolabel recovery (Blood [22]): 7.67 ugequiv/g | Radiolabel recovery (Plasma [23]): 18.5 ugequiv/g | Radiolabel recovery [24]: 21.3 ugequiv/g | Radiolabel recovery [25]: 35.3 ugequiv/g | Radiolabel recovery (Lung [26]): 405 ugequiv/g | Radiolabel recovery [27]: 26.7 ugequiv/g | Radiolabel recovery (Lung [28]): 136 ugequiv/g | Radiolabel recovery [29]: 9.95 ugequiv/g | Radiolabel recovery (Plasma [30]): 11.6 ugequiv/g | Radiolabel recovery (Kidney [31]): 64.6 ugequiv/g | Radiolabel recovery (Lung [32]): 135 ugequiv/g | Radiolabel recovery (Kidney [33]): 256 ugequiv/g | Radiolabel recovery [34]: 9.4 ugequiv/g | Radiolabel recovery (Liver [35]): 1050 ugequiv/g | Radiolabel recovery [36]: 102 ugequiv/g | Radiolabel recovery (Liver [37]): 240 ugequiv/g | Radiolabel recovery (Kidney [38]): 59.1 ugequiv/g | Radiolabel recovery (Plasma [39]): 20.8 ugequiv/g | Radiolabel recovery (Plasma [40]): 12.4 ugequiv/g | Radiolabel recovery [41]: 308 ugequiv/g | Radiolabel recovery [42]: 905 ugequiv/g | Radiolabel recovery [43]: 28.1 ugequiv/g | Radiolabel recovery [44]: 11.3 ugequiv/g | Radiolabel recovery [45]: 10.7 ugequiv/g | Radiolabel recovery (Liver [46]): 121 ugequiv/g | Radiolabel recovery (Liver [47]): 90.4 ugequiv/g | Radiolabel recovery (Kidney [48]): 39.2 ugequiv/g | Radiolabel recovery [49]: 243 ugequiv/g | Radiolabel recovery (Liver [50]): 545 ugequiv/g
